From patent US20160138114A1, “Biomarkers of Response to Inhibition of Poly-ADP Ribose Polymerase (PARP) in Cancer” (THE REGENTS OF THE UNIVERSITY OF CALIFORNIA, priority 2013, published 2016)

Tests used:
[1] = tested on: HCC1937; assay: BMN673 sensitivity (cell growth) in cancer cell line; format: cell-based, human; settings: HCC1937, Breast
Protocol: (§1) This example illustrates that CHD1L amplification correlated with overexpression of CHD1L protein. […] CHD1L protein expression in the NSCLC and breast cancer cell lines was assayed by Western blot with antibodies against CHD1L. […] HCC1937 was used as a negative control for CHD1L protein expression, as the cell line carries a loss of heterozygosity (LOH) of CHD1L. Each of these cell lines was also assayed for sensitivity or resistance to inhibition of PARP by BMN673. Briefly, each cell line was cultured and exposed to a range of concentrations of BMN673 to determine an IC50 value of inhibitory effect on PARP (as evidenced by cell growth) for each cell line (see Table 2).

[2] = tested on: HCC1187; assay: as above; format: cell-based, human; settings: HCC1187, Breast
Protocol: as §1

[3] = tested on: CaLu1; assay: as above; format: cell-based, human; settings: CaLu1, Lung
Protocol: as §1

[4] = tested on: H1568; assay: as above; format: cell-based, human; settings: H1568, Lung
Protocol: as §1

[5] = tested on: H1838; assay: as above; format: cell-based, human; settings: H1838, Lung
Protocol: as §1

[6] = tested on: BT-20; assay: as above; format: cell-based, human; settings: BT-20, Breast
Protocol: as §1

[7] = tested on: MDA-MB-436; assay: as above; format: cell-based, human; settings: MDA-MB-436, Breast
Protocol: as §1

[8] = tested on: 184B5; assay: as above; format: cell-based, human; settings: 184B5, Breast
Protocol: as §1

[9] = tested on: MCF7; assay: as above; format: cell-based, human; settings: MCF7, Breast
Protocol: as §1

[10] = tested on: BT-474; assay: as above; format: cell-based, human; settings: BT-474, Breast
Protocol: as §1

[11] = tested on: EMF192A; assay: as above; format: cell-based, human; settings: Breast
Protocol: as §1

[12] = tested on: H1651; assay: as above; format: cell-based, human; settings: H1651, Lung
Protocol: as §1

[13] = tested on: 184B5 parental cell line; assay: BMN673 treatment of CHD1L knock-in study, parental line; format: cell-based; settings: Homo sapiens, low CHD1L protein expression
Protocol: (§2) This example illustrates the creation of cell lines overexpressing CHD1L protein by vector knock-in. Briefly, breast cancer cell line 184B5 cells were transduced with lentivirus containing CHD1L cDNA. After transduction, clones transfected with CHD1L were selected with 500 μg/mL G418 for 1 week. Expression of CHD1L protein in the 24 knock-in clones and the parental cell line 184B5 was detected by Western blot. […] This example illustrates that the knock-in of CHD1L protein sensitized breast cancer cells to BMN673 treatment. Briefly, 184B5 knock-in clones 7 and 14 (i.e., cells with high CHD1L protein expression) were treated with BMN673 and compared with the 184B5 parental cell line (i.e., cells with low CHD1L protein expression) treated with BMN673, with respect to percent death from baseline (FIG. 5, top panel) and percent growth inhibition (FIG. 5, bottom panel).

[14] = tested on: 184B5 CHD1L knock-in clone 7; assay: BMN673 treatment of CHD1L knock-in clone; format: cell-based; settings: Homo sapiens; 184B5 knock-in clone 7, high CHD1L protein expression
Protocol: as §2

[15] = tested on: 184B5 CHD1L knock-in clone 14; assay: BMN673 treatment of CHD1L knock-in clone; format: cell-based; settings: Homo sapiens; 184B5 knock-in clone 14, high CHD1L protein expression
Protocol: as §2

For `Cn1ncnc1[C@H]1c2n[nH]c(=O)c3cc(F)cc(c23)N[C@@H]1c1ccc(F)cc1` [BMN673], the Response [1] was “Int”, the IC50 ([1]; Homo sapiens, 1q21 LOH) was 84.2 nM and the Response [2] was “sensitive and Sens”. For the same molecule, the IC50 ([2]; Homo sapiens, 1q21 AMP) was 1.09 nM, the Response [3] was “resistant and Res” and the IC50 ([3]; Homo sapiens, Calu-1, 1q21 NC) was 2560 nM. The Response [4] was “Int”, the IC50 ([4]; Homo sapiens, NCI-H1568, 1q21 AMP) was 49.8 nM and the Response [5] was “sensitive and Sens”. For the same molecule, the IC50 ([5]; Homo sapiens, NCI-H1838, 1q21 AMP) was 1.2 nM, the Response [6] was “resistant and Res” and the IC50 ([6]; Homo sapiens, 1q21 NC) was 352 nM. For the same molecule, the IC50 ([7]; Homo sapiens, 1q21 AMP) was 0.19 nM, the Response [7] was “sensitive and Sens” and the Response [8] was “resistant and Res”. For the same molecule, the IC50 ([8]; Homo sapiens, 1q21 NC) was 5480 nM, the IC50 ([9]; Homo sapiens, 1q21 AMP) was 92.8 nM and the Response [9] was “sensitive and Int”. For the same molecule, the Response [10] was “resistant and Res”, the IC50 ([10]; Homo sapiens, 1q21 NC) was 595 nM and the Response [11] was “resistant and Res”. The IC50 ([11]; Homo sapiens, 1q21 NC) was 897 nM, the Response [12] was “sensitive and Sens” and the IC50 ([12]; Homo sapiens, NCI-H1651, 1q21 AMP) was 6.31 nM. For the same molecule, the IC50 [13] was roughly 1000 nM, the IC50 [14] was 62 nM and the IC50 [15] was 30 nM.
